Test results: US6936719B2, “Biaryl compounds as serine protease inhibitors” (BioCryst Pharmaceuticals, Inc., priority 2001, dated 2005)
pIC50: −log10 of the molar value.

Legend:
Type in all cases: biochemical
TF/FVIIa = TF/FVIIa (Homo sapiens, UniProt P08709); assay: In vitro amidolytic assay for inhibition of TF/FVIIa (Spectrozyme-FVIIa, pNA absorbance at OD405)
Method: In Vitro Assay for Inhibition of TF/FVIIa
To assess the inhibition of the test compounds against the target enzyme, TF/FVIIa, an amidolytic assay based upon the absorbance of p-Nitroanalide (pNA) at OD405 was utilized. The IC50 of the test compounds was determined by using KC4A data reduction software (Bio-Tek Instruments) to interpolate percent inhibition from observed Vmax values.
TF/FVIIa assay reactions were performed in a 200 μL mixture containing 4 nM FVIIa, 10 nM lipidated tissue factor, in an assay buffer containing 100 mM Tris, pH 7.2, 150 mM NaCl, 5 mM calcium chloride, 0.1% bovine serum albumin (BSA), and 10% dimethyl sulfoxide (DMSO). TF and FVIIa were allowed to equilibrate at room temperature for 15 minutes. Test compounds dissolved in DMSO were incubated at varied concentrations with TF/FVIIa for 10 minutes, followed by addition of 500 µM substrate Spectrozyme-FVIIa. Reactions were incubated for 5 minutes at room temperature prior to measuring the change in OD405 run for 10 minutes at 21 second intervals with a Powerwave x (Bio-Tek Instruments) microplate reader.

human thrombin = human thrombin (Homo sapiens, UniProt P00734); assay: In vitro colorimetric assay for human thrombin (Nα-Benzoyl-Phe-Val-Arg-p-Nitroanilide, OD405)
Method: In Vitro Assay for Human Thrombin
This colorimetric assay was used to assess the ability of the test compounds to inhibit the human thrombin enzyme. IC50 of the test compounds was determined by using KC4A data reduction software (Bio-Tek Instruments) to interpolate percent inhibition from observed Vmax values.
Thrombin assay reactions were performed in a 200 μL mixture containing human thrombin at (1 U/mL) in an assay buffer containing 100 mM HEPES, 10 mM calcium chloride, and 10% DMSO, pH 7.5. Test compounds dissolved in DMSO were added to thrombin enzyme reactions at varied concentrations, followed by the addition of substrate Nα-Benzoyl-Phe-Val-Arg-p-Nitroanilide at a final concentration of 1 mM. Reactions were incubated for 5 minutes at room temperature prior to measuring the change in OD405 nm for 10 minutes at 21 second intervals with a Powerwave x (Bio-Tek Instruments) microplate reader.

human pancreatic trypsin = assay: In vitro enzymatic assay for human trypsin (L-BAPNA, OD405)
Method: In Vitro Assay for Human Trypsin
This enzymatic assay was employed to evaluate the ability of the test compounds to inhibit human pancreatic trypsin. IC50 of the test compounds was determined by using KC4A data reduction software (Bio-Tek Instruments) to interpolate percent inhibition from observed Vmax values.
Trypsin assay reactions were performed in a 200 μL mixture containing human pancreatic trypsin at 1 μg/mL in an assay buffer containing 200 mM triethanolamine (TEA), 10 mM calcium chloride, 10% DMSO, pH 7.8. Test compounds dissolved in DMSO were added to trypsin enzyme reactions at varied concentrations, followed by the addition of substrate Nα-Benzoyl-L-Arginine p-Nitroanilide (L-BAPNA) at a final concentration of (0.25 mg/mL). Reactions were incubated for 5 minutes at room temperature prior to measuring the change in OD405 nm for 10 minutes at 21 second intervals with a Powerwave x (Bio-Tek Instruments) microplate reader.

TF/FVIIa, sequence (P08709 213-466 limits assumed): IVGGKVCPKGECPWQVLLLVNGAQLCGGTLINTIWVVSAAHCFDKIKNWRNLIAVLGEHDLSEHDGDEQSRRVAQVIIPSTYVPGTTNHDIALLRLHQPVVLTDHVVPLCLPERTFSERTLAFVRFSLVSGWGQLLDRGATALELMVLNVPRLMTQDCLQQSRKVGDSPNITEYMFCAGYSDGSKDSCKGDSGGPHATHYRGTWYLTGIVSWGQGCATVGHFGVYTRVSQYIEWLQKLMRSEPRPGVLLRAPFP
TF/FVIIa, sequence (P08709 61-212 limits assumed): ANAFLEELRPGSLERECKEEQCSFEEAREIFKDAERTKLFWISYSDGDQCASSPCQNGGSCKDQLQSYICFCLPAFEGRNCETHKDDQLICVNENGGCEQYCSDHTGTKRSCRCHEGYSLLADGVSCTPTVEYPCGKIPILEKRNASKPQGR
TF/FVIIa, sequence (P13726 33-295 partner): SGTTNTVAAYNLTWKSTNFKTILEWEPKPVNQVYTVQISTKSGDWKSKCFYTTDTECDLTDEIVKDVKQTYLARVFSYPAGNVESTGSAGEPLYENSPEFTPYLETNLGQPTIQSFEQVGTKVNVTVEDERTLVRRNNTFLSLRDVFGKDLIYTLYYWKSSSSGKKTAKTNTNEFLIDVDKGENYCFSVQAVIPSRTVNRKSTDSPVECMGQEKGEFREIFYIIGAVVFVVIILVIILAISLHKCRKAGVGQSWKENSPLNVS

Row | Compound | pIC50 (TF/FVIIa) | pIC50 (human thrombin) | pIC50 (human pancreatic trypsin)
1 | CC(C)CNC(=O)c1ccc(-c2ccc(-c3ccc(CO)s3)cc2C(=O)Nc2ccc(C(=N)N)cc2)c(C(=O)O)c1 | < 7.00 | < 6.00 | < 6.00
2 | CC(C)CNC(=O)c1ccc(-c2ccc(-c3nccs3)cc2C(=O)Nc2ccc(C(=N)N)cc2)c(C(=O)O)c1 | < 7.00 | < 6.00 | < 6.00
3 | CC(C)CNC(=O)c1ccc(-c2cc(-c3cccs3)ccc2C(=O)Nc2ccc(C(=N)N)cc2)c(C(=O)O)c1 | < 7.00 |  | 
4 | C=Cc1ccc(-c2ccc(C(=O)NC(CCC)CCC)cc2C(=O)O)c(C(=O)Nc2ccc(C(=N)N)cc2)c1 | > 7.00 | < 6.00 | 6.00 to 7.00

Second part, the molecule after the results:

Row | pIC50 (TF/FVIIa) | pIC50 (human thrombin) | pIC50 (human pancreatic trypsin) | Compound
5 | < 7.00 | < 6.00 | < 6.00 | CC(C)CNC(=O)c1ccc(-c2ccc(-c3ccncc3)cc2C(=O)Nc2ccc(C(=N)N)cc2)c(C(=O)O)c1
6 | < 7.00 |  |  | CC(C)CNC(=O)c1ccc(-c2ccc(C#CC(C)(C)O)cc2C(=O)Nc2ccc(C(=N)N)cc2)c(C(=O)O)c1
7 | < 6.00 |  |  | CC(C)CNC(=O)c1ccc(-c2cc(Oc3ccccc3)ccc2C(=O)Nc2ccc(C(=N)N)cc2)c(C(=O)O)c1
8 | > 7.00 | < 6.00 | 6.00 to 7.00 | C#CCNC(=O)c1ccc(-c2ccc(-c3ccco3)cc2C(=O)Nc2ccc(C(=N)N)cc2)c(C(=O)O)c1
9 | > 7.00 | < 6.00 | 6.00 to 7.00 | N=C(N)c1ccc(NC(=O)c2cc(-c3ccco3)ccc2-c2ccc(C(=O)NCCCCCC(=O)O)cc2C(=O)O)cc1
10 | > 7.00 | < 6.00 | 6.00 to 7.00 | C=Cc1ccc(-c2ccc(C(=O)NCC(C)C)cc2C(=O)O)c(C(=O)Nc2ccc(C(=N)N)cc2)c1
